Reference: patent publication US20210386714A1, “DRUG AND GENE THERAPY TO TREAT HIGH MYOPIA AND OTHER OCULAR DISORDERS WITH ENLARGED EYE GLOBES” (City University of Hong Kong, priority 2020, published 2021)
Entries after “also recorded” stand apart in the source; their conditions may differ.

Key:
[1] = system: SREBP2 transcriptional targets and Lrp2 in mouse RPE; test: mouse RPE explant model, mRNA level by qPCR; format: cell-based
Source text: Eyes were quickly removed from the euthanized mouse and dipped in 70% ethanol for decontamination. Under a dissecting stereomicroscope, connective tissues and muscles were carefully removed. After washing twice in PBS, eyes were immersed in warm culture medium (DMEM:F12+10% FBS). Cornea was cutoff using curved scissors, and lens was pulled out gently with tweezers. Or a serrate was cut off to remove iris and cornea. Retina and optic nerve were carefully and completely removed from eye cups. Four radial cuts were made to enable flat-mounting of eye cups. Each eye cup was transferred onto the center of a floating polycarbonate nucleopore filter membrane (Whatman 110406, 0.2 Micron) placed in 6-well plates with the RPE side facing down. The freshly prepared BF175 stock solution was added to the full culture medium to a final BF175 concentration of 12.5 uM. Half of the medium was replaced with fresh medium on the second day. RPE flat-mounts were harvested at 48 hr in explant and processed for RPE isolation and RNA extraction.
Eyecups without retina and optic nerve tissues were dissected as described in the RPE explant section. Two eyes of the same mouse were pooled in one tube and processed together. RPE were incubated in papain solution (Worthington) for 15 minutes. After washing twice in warm medium, RPE were triturated with 600 μl pipette tip gently to dissociate the pigmented RPE cells from sclera. Resuspended cell solution was transferred to a clean tube and spun down at 600 g.
RNAs were converted to cDNA using PrimeScript RT reagent kit with gDNA Eraser (Takara). qPCR was performed using PowerUp Sybr Green Master Mix (Thermofisher) on QuantStudio 3 Real-Time PCR stems (Applied Biosystems). Gapdh was used as the normalizing control. qPCR primers were listed in Supplementary Information.

[2] = system: eye enlargement induced by Lrp2 knockdown (AAV8-Best1-Lrp2 sh1); test: eye globe dimension measurement after subretinal co-injection in Lrp2 knockdown eyes; format: in vivo, mouse; details: subretinal co-injection with virus at P0, BF175 12.5 uM
Procedure: Subretinal injection into P0 (P2 for AAV-RK-viruses) neonate eyes was performed as known in the art. Approximately 0.25 μl of viruses in PBS was injected into the subretinal space using a pulled angled glass pipette controlled by a FemtoJet (Eppendorf). BF175 stock solution (25 mM in DMSO) was first mixed with Tween-20 (Sigma-Aldrich) at a ratio of 5:1 in order to help BF175 dissolve in PBS. Then the mixed solution was added to the virus to a final BF175 concentration of 12.5 uM. The vehicle treatment was virus added with the same amount of DMSO with Tween-20. For animals used for qPCR and RNA-seq, both left and right eyes were injected and used for RNA extraction. For animals used for eye size measurement or other phenotype characterizations, only the right eye of the animal was injected, and the fellow left eye was uninjected for with-in animal controls.
CD-1 mice were sacrificed at indicated ages. Eyes were enucleated, and connective tissues and muscles were carefully removed using tweezers and scissors. Eyes were immersed in PBS in 6 cm petri dish and imaged under a Nikon SMZ800N dissection scope with 2× magnification. ED and AL were measured in imageJ and converted to millimeters. OCT

[3] = mouse RPE explant, 12.5 uM BF175 in culture medium, 48 hr

Compound | Lrp2 gene expression in RPE ([1]; RPE cells, Fatostatin, concentration not given) | mRNA level of Hmgcr [1, 3] | mRNA level of Ldlr [1, 3] | mRNA level of Lrp2 (Lrp2 gene expression in RPE) [1, 3] | Lrp2 sh1-induced increase in eye size [2]
Br.CCCc1cc(-c2nc(-c3ccc(C)cc3)cs2)ccn1 [Fatostatin, reference compound] | increases |  |  |  | 
CC1(C)OB(c2ccc(/C=C/c3cc(Cl)cc(Cl)c3)cc2)OC1(C)C [BF175] |  | reduced | reduced | significantly increased | rescued; also recorded: effectively suppressed
